In US20030170252A1, “Antibody compositions specific for p33QIK and p63Krs1 polypeptides and uses thereof” (priority 2000, published 2003):
Starred links: 1 amine or outer side, 2 acyl side, 3 side chain; linkers in the order of their positions; H or OH if unused. Positions of bridges follow the written chain, without caps; N, C: chain ends. Non-standard residues stand in square brackets, D forms with d. Residues, ends and D or L forms follow the SMILES beside them. Chains are numbered I, II in the order given. Actinocin(9to1) = Cc1c2oc3c(C)ccc(C(=O)[*:1])c3nc-2c(C(=O)[*:2])c(N)c1=O; NMeV = CN[C@H](C(=O)O)C(C)C; Sar = CNCC(=O)O

Legend:
p33^QIK [1] = experiment: In-gel kinase assay (MBP substrate) of p33^QIK activity in treated NIH3T3 cultures; assay type: cell-based, mouse; settings: for TPA-induced deactivation of p33^QIK: quiescent NIH3T3, co-treatment with 100 ng/ml TPA; for serum-induced down-regulation of p33^QIK activity: quiescent NIH3T3, co-treatment with 10% serum
Protocol: (§1) Mouse NIH3T3 fibroblast cultures were maintained in Dulbecco's modified Eagle's medium (DMEM)(BRL/GIBCO, Grand Island, N.Y.) supplemented with 5% calf serum, 50 units/ml penicillin, and 5 mcg/ml streptomycin, and cultivated at 37° C.
(§2) Mouse 10T1/2 fibroblast cultures were maintained in Basal medium Eagle (BRL/GIBCO, Grand Island, N.Y.) supplemented with 10% heat-inactivated fetal bovine serum, 50 U/ml penicillin, and 5 μg/ml streptomycin, and cultivated at 37° C. Cells synchronized in quiescent state were growth-arrested by serum starvation for 48 hr. Actinomycin D (ActD), cycloheximide (CHXM), 12-0-tetradecanoylphorbol 13-acetate (TPA), staurosporine (STSP) (Sigma Chemical, St. Louis, Mo.), sodium fluoride (NaF), sodium orthovanadate (Na3VO4) (Fisher Scientific, Pittsburgh, Pa.), and FR901228 (FR)(NCI, Frederick, Md.) were diluted in cultured medium before treatment of cultured cells. A broad range caspase inhibitor Z-Asp-[(2,6-dichlorobenzoyl)oxy]methane (Z-D-CH2-DCB) (Dolle et al., 1994; Mashima et al., 1995)(CALBIOCHEM, La Jolla, Calif.) was dissolved in dimethyl sulfoxide and diluted in cultured medium for treatment. Recombinant human Caspase-3 was purchased from Alexis Biochemicals (San Diego, Calif.). Protein phosphatase 1 (PP1) and Lambda protein phosphatase (λPPase) were purchased from NE BioLabs (Beverly, Mass.). Production of rabbit polyclonal antibody Ab-KQ to p63^Krsl and p33^QIK was made using peptide sequences of Krsl as antigens (Alpha Diagnostic International, San Antonio, Tex.). UV irradiation was carried out using a UV Crosslinker (Stratagene, La Jolla, Calif.).
(§3) Cells were lysed with 30 strokes of a tight-fitting Dounce homogenizer in lysis A buffer (10 mM KH2PO4, 1 mM EDTA, 5 mM EGTA, 10 mM MgCl2, 50 mM […], 1 mM Na3VO4, 2 mM dithiothreitol) (Wang et al., 1992). Cytoplasmic proteins (S20) were isolated from the supernatants after centrifugation of crude lysates at 20,000 ×g for 20 min. Protein concentration in S20 was measured by using the BCA assay (Pierce, Rockford, Ill.). Immunoprecipitation of p33^QIK was carried out by incubation of S20 with the specific antibody Ab-KQ at 0° C. for 1 hr. Immune complexes were adsorbed to Pansorbin (Staphylococcus aureus) (CALBIOCHEM, La Jolla, Calif.) at 0° C. for 30 min and washed with STE buffer (50 mM Tris-HCl, pH 7.0, 150 mM NaCl, 1 mM Na2 EDTA) supplemented with 0.1 mM DTT and 0.1% NP-40 and ST buffer supplemented with 1 mM DTT.
(§4) MBP (BRL/GIBCO, Grand Island, N.Y.) was used as a substrate in the assay and the in-gel kinase assay was performed as previously described (Wang et al., 1992). Briefly, 10% SDS-polyacrylamide gel (SDS-PAG) was copolymerized with 0.4 mg/ml MBP. Cellular proteins were resolved in the MBP-immobilized SDS-PAG, followed by rinsing the gel with 20% isopropanol in buffer B (100 mM Tris, pH 8, 5 mM β-mercaptoethanol). The gel was denatured in buffer B supplemented with 6 M guanidine-HCl and renatured with buffer B supplemented with 0.04% Tween 40 (Kameshita and Fujisawa, 1989). Kinase reaction was carried out by incubating the gel with kinase buffer (20 Mm Tris, pH 7.2, 10 mM MgCl2, 15 mM β-glycerolphosphate) supplemented with 50 μM γATP and 50 μCi of [γ-^32P]ATP at 22° C. for 30 min. The gel was washed with 1% sodium pyrophosphate in 5% trichloroacetic acid. Protein kinases which phosphorylated MBP in the gel were detected by autoradiography of the [γ^32P]-labeled MBP.

p44/42^Erk = assay type: cell-based, mouse; settings: quiescent NIH3T3 treated with serum or TPA in the presence of ActD or CHXM
Protocol: as §1, §2, §3, §4

NIH3T3 cultures = experiment: Cell death in quiescent NIH3T3 cultures; assay type: cell-based, mouse; settings: quiescent cultures treated with ActD or CHXM for 3 hr
NIH3T3 cells = experiment: Flow cytometric analysis of DNA content (cell cycle phase); assay type: cell-based, mouse
Protocol: After rinsing with phosphate buffered saline (PBS), cells were trypsinized from culture dishes, rinsed with Ca^++ and Mg^++ free PBS, fixed in 70% cold ethanol, and stained with 10 μg/ml propidium iodide (PI) for 30 min (Darzynkiewicz et al., 1995). Flow cytometry analysis was performed on the Coulter EPICS Elite Cytometer (Hialeah, Fla.) using 15 mW air-cooled argon laser producing 488-nm light in which PI fluorescence light emission is collected with a 610LPDC filter. Extended analysis of DNA content and calculation of the percentage of cells in each phase of the cell cycle were performed on Multicycle software (Phoenix Flow System, San Diego, Calif.).

p33^QIK [2] = experiment: In-gel kinase assay of p33^QIK activity in 10T1/2 cultures; assay type: cell-based; settings: mouse fibroblast 10T1/2 cultures treated with FR
Protocol: as §2, with “Production of rabbit polyclonal antibody Ab-KQ to p63^Krsl and p33^QIK was made using peptide sequences of Krsl as antigens (Alpha Diagnostic International, San Antonio, Tex.). UV irradiation was carried out using a UV Crosslinker (Stratagene, La Jolla, Calif.).” left out
(§5) MBP (BRL/GIBCO, Grand Island, N.Y.) was used as a substrate in the assay and the in-gel kinase assay was performed as previously described (Wang et al., 1992). […] Protein kinases which phosphorylated MBP in the gel were detected by autoradiography of the [γ^32P]-labeled MBP.

33 kDa-MBP kinase = settings: MCF-7 and MDA-MB361 cells treated with FR (Rajgolikar et al., 1998); cited from earlier work
p63^Krsl = experiment: In-gel kinase assay (MBP substrate) of p63^Krsl activity in treated NIH3T3 cultures; assay type: cell-based, mouse; settings: quiescent NIH3T3 cultures, 100 nM STSP, 2 hr
Protocol: as §1
Mouse 10T1/2 fibroblast cultures were maintained in Basal medium Eagle (BRL/GIBCO, Grand Island, N.Y.) supplemented with 10% heat-inactivated fetal bovine serum, 50 U/ml penicillin, and 5 μg/ml streptomycin, and cultivated at 37° C. Cells synchronized in quiescent state were growth-arrested by serum starvation for 48 hr. […]
Cells were lysed with 30 strokes of a tight-fitting Dounce homogenizer in lysis A buffer (10 mM KH2PO4, 1 mM EDTA, 5 mM EGTA, 10 mM MgCl2, 50 mM […], 1 mM Na3VO4, 2 mM dithiothreitol) (Wang et al., 1992). […] Protein concentration in S20 was measured by using the BCA assay (Pierce, Rockford, Ill.). […]
as §5

cells = settings: cited from earlier work
Caspase-3 = target: T1, Caspase-3 (Homo sapiens, UniProt P42574); experiment: Inhibition of caspase-3 modification of immune complexes; assay type: biochemical; settings: 5 μM inhibitor, 0.2 μg Caspase-3, 37° C., 30 min
T1 construct: purchased Alexis Biochemicals (San Diego, Calif.)
T1 sequence (P42574 29-175 limits assumed): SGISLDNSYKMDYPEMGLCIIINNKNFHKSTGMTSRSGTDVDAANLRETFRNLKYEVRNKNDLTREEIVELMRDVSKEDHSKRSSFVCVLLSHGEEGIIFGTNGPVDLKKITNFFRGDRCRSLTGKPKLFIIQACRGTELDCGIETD
Protocol: Both p63^Krsl and p33^QIK in 10 μg of cytosolic lysates (S20) were immunoprecipitated by Ab-KQ (lanes 2 to 4 and 6 to 8), followed by reatment with 0.2 μg Caspase-3 (C)(lanes 3, 4, 7 and 8) in the presence of 5 μM caspase inhibitor Z-D-CH2-DCB (C+I)(lanes 4 and 8) at 37° C. for 30 min. The kinase activities of p63^Krsl, p35, and p33^QIK in 5 μg of S20 (lanes 1 and 5) and in the immune complexes were determined by the in-gel kinase assay using MBP as a substrate. Bars indicate p63^Krsl p35, and p33^QIK.
Mouse 10T1/2 fibroblast cultures were maintained in Basal medium Eagle (BRL/GIBCO, Grand Island, N.Y.) supplemented with 10% heat-inactivated fetal bovine serum, 50 U/ml penicillin, and 5 μg/ml streptomycin, and cultivated at 37° C. Cells synchronized in quiescent state were growth-arrested by serum starvation for 48 hr. Actinomycin D (ActD), cycloheximide (CHXM), 12-0-tetradecanoylphorbol 13-acetate (TPA), staurosporine (STSP) (Sigma Chemical, St. Louis, Mo.), sodium fluoride (NaF), sodium orthovanadate (Na3VO4) (Fisher Scientific, Pittsburgh, Pa.), and FR901228 (FR)(NCI, Frederick, Md.) were diluted in cultured medium before treatment of cultured cells. […]

[3] = quiescent NIH3T3, absence of serum, 5 μg/ml ActD or 10 μg/ml CHXM, 1 or 3 hr
[4] = 5 μg/ml ActD or 10 μg/ml CHXM, 1 or 3 hr
[5] = proliferating NIH3T3 cultures, 5 nM FR, 24 hr
[6] = NIH3T3 synchronized by serum starvation, 18 hr serum, then 10 nM STSP for 24 hr

## Cc1c2oc3c(C)ccc(C(=O)N[C@@H]4C(=O)N[C@H](C(C)C)C(=O)N5CCC[C@H]5C(=O)N(C)CC(=O)N(C)[C@@H](C(C)C)C(=O)O[C@@H]4C)c3nc-2c(C(=O)N[C@@H]2C(=O)N[C@H](C(C)C)C(=O)N3CCC[C@H]3C(=O)N(C)CC(=O)N(C)[C@@H](C(C)C)C(=O)O[C@@H]2C)c(N)c1=O [ActD, Actinomycin D] (I: T[dV]P[Sar][NMeV] / II: T[dV]P[Sar][NMeV]; ester I:1-I:C, II:1-II:C; linker I:N-II:N via Actinocin(9to1))
p33^QIK [1]; [3]
  kinase activity of p33^QIK: significant increases of p33^QIK activity
p33^QIK [1]; [4]
  TPA-induced deactivation of p33^QIK: blockage of the TPA-induced deactivation of p33^QIK but also in an increase in the kinase activity of p33^QIK
  serum-induced down-regulation of p33^QIK activity: blocked the serum-induced down-regulation of p33^QIK activity
p44/42^Erk
  kinase activity of p44/42^Erk: constant activation of p44/42^Erk
NIH3T3 cultures
  cell death: extensive cell death occurred

## C[C@@H]1C[C@@H]([C@H](O)CC2CC(=O)NC(=O)C2)C(=O)[C@@H](C)C1 [CHXM, cycloheximide]
p33^QIK [1]; [3]
  kinase activity of p33^QIK: significant increases of p33^QIK activity
p33^QIK [1]; [4]
  TPA-induced deactivation of p33^QIK: blockage of the TPA-induced deactivation of p33^QIK but also in an increase in the kinase activity of p33^QIK
  serum-induced down-regulation of p33^QIK activity: blocked the serum-induced down-regulation of p33^QIK activity
p44/42^Erk
  kinase activity of p44/42^Erk: constant activation of p44/42^Erk
NIH3T3 cultures
  cell death: extensive cell death occurred

## C/C=C1\NC(=O)[C@H]2CSSCC/C=C/[C@H](CC(=O)N[C@H](C(C)C)C(=O)N2)OC(=O)[C@H](C(C)C)NC1=O [FR, FR901228]
p33^QIK [1]; [5]
  kinase activity of p33^QIK: p33^QIK activity was induced
NIH3T3 cells; [5]
  cell population in each phase of the cell cycle: growth arrest of cells in G0/G1 phase was evident
p33^QIK [2]
  kinase activity of p33^QIK: Activation of p33^QIK was also detected
33 kDa-MBP kinase
  33 kDa-MBP kinase activity: induction of a 33 kDa-MBP kinase activity

## CN[C@@H]1C[C@H]2O[C@@](C)([C@@H]1OC)n1c3ccccc3c3c4c(c5c6ccccc6n2c5c31)C(=O)NC4 [STSP, staurosporine]
p33^QIK [1]; [6]
  kinase activity of p33^QIK: activation of p33^QIK was detected
p63^Krsl
  kinase activity of p63^Krsl: activated p63^Krsl
NIH3T3 cells; [6]
  cell population in each phase of the cell cycle: a major population of cells was arrested in G0/G1 state
cells; high concentration
  concentration arresting cells in G2 phase: 100 to 150 nM
cells; low concentration
  concentration arresting cells in early G1 phase: 2 to 20 nM

## O=C(O)CC(NC(=O)OCc1ccccc1)C(=O)COC(=O)c1c(Cl)cccc1Cl [Z-D-CH2-DCB, Z-Asp-[(2,6-dichlorobenzoyl)oxy]methane]
p33^QIK [1]; cultures preincubated with caspase inhibitor prior to serum starvation and osmotic stress
  induction of p33^QIK activity: neither blocked induction of p33^QIK activity
Caspase-3
  blockage of caspase-3 induced changes in p63^Krsl, p35 and p33^QIK activity: completely blocked
